The species named for experiment [1] is Rattus norvegicus. In words: Suppression of IFN-gamma-induced PKCalpha/beta2 nuclear translocation in Sprague-Dawley rat primary microglial cells at 1.3 uM by Western blotting. A general note: Immunoblotting shows a protein as a band on a membrane.
A short description of experiment [2]: Decrease in IFN-gamma-induced MHC2 expression in Sprague-Dawley rat primary microglial cells at 1.3 uM. The format is cell-based. Further details: scale not given: the % may be the effect or the level left. Particulars: Microglia.
The target of experiment [3] is T1, Interferon regulatory factor 1 (Rattus norvegicus) (UniProt P23570).
T1 sequence (whole entry): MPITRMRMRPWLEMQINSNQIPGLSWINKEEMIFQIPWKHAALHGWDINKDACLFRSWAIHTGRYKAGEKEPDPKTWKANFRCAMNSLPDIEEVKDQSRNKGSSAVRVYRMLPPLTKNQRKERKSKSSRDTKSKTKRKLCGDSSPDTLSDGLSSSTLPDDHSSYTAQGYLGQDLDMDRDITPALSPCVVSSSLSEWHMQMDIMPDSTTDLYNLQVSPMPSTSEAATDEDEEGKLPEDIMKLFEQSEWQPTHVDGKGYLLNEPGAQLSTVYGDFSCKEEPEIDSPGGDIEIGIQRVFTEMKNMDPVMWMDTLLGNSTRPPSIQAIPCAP
Description: Suppression of IFN-gamma-induced IFN-gamma regulatory factor 1 nuclear translocation in Sprague-Dawley rat primary microglial cells at 1.3 uM by Western blotting.

For experiment [4], the target named is Protein kinase C beta type (Homo sapiens, UniProt P05771). Description: Inhibition of PKCbeta1.
Sequence of Protein kinase C beta type (P05771 whole entry): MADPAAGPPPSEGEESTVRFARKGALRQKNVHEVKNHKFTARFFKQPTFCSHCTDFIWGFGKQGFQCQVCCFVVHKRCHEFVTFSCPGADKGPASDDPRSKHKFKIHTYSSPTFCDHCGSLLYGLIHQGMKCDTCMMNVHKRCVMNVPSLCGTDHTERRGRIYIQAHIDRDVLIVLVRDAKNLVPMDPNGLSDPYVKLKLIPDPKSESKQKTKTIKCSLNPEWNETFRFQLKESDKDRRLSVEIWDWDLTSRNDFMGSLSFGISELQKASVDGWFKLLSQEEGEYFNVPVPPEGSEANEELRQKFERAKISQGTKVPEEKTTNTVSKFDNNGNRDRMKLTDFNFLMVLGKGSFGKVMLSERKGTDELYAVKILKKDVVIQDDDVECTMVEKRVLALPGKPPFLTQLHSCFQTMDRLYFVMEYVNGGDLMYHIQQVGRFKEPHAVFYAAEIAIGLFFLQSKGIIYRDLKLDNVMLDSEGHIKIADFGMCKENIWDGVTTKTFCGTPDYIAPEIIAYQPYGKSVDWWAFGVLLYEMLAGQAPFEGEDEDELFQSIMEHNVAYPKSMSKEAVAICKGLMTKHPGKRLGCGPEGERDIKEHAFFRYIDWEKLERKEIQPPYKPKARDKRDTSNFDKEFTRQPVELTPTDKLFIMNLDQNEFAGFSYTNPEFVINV
In another experiment the test system is Microglia. In words: Inhibition of IFN-gamma-induced IFN-gamma regulatory factor levels in Sprague-Dawley rat primary microglial cells by Western blotting. In kind it is functional, cell-based.
Experiment [5] concerns the target Protein kinase C alpha type (Homo sapiens, UniProt P17252). Description: Inhibition of PKCalpha.
Experiment [6] in a line: Decrease in IFN-gamma-induced MHC2 protein levels in Sprague-Dawley rat primary microglial cells at 1.3 uM by Western blotting. Further details: scale not given: the % may be the effect or the level left. The format is functional, Microglia.
For experiment [7], the system named is Macrophage. In words: Inhibition of MHC2 expression in Sprague-Dawley rat peritoneal macrophages at 1.3 uM after 24 hrs by immunostaining. The format is functional, cell-based.
The target of experiment [8] is Protein kinase C alpha type (Rattus norvegicus) (UniProt P05696). Description: Decrease in PKCalpha phosphorylation in Sprague-Dawley rat peritoneal macrophages at 100 uM after 24 hrs.
A short description of experiment [9]: Decrease in IFN-gamma-induced MHC2 protein levels in Sprague-Dawley rat primary microglial cells at 100 uM by Western blotting. The format is functional, Microglia. Further details: scale not given: the % may be the effect or the level left.
The species entered for experiment [10] is Rattus norvegicus. Description: Reduction in IFN-gamma-induced PKCalpha/beta2 phosphorylation in Sprague-Dawley rat primary microglial cells at 100 uM by Western blotting.
For experiment [11], the system named is Rattus norvegicus. In words: Decrease in accumulation of CD11b+ cells in spinal cord of dark agouti rat experimental allergic encephalomyelitis model at 45 mg/kg, ip administered twice a day at the first day of clinical signs and once a day for 14 days by immunostaining. In kind it is functional. Further details: scale not given: the % may be the effect or the level left. Particulars: route intraperitoneal.

For experiment [12], the target named is T1, Interferon regulatory factor 1 (Rattus norvegicus). Description: Suppression of IFN-gamma-induced IFN-gamma regulatory factor 1 nuclear translocation in Sprague-Dawley rat primary microglial cells at 100 uM by Western blotting.
The subject of experiment [13] is Rattus norvegicus. In words: Decrease in size of MOG-induced inflammatory lesions in spinal cord of dark agouti rat experimental allergic encephalomyelitis model at 45 mg/kg, ip administered twice a day at the first day of clinical signs and once a day for 14 days by hematoxylin and eosin staining. Further details: dose 45 mg/kg. The format is functional, organism-based.

Experiment [14] is described as follows: Decrease in IFN-gamma-induced MHC2 expression in Sprague-Dawley rat primary microglial cells at 100 uM. The format is functional, cell-based. Further details: scale not given: the % may be the effect or the level left. The following applies: Microglia.
A short description of experiment [15]: Decrease in IFN-gamma-induced CIITA mRNA expression in Sprague-Dawley rat primary microglial cells at 100 uM after 24 hrs by RT-PCR. In kind it is functional, cell-based. Particulars: Microglia.
Experiment [16] relates to Macrophage. In words: Inhibition of MHC2 expression in Sprague-Dawley rat peritoneal macrophages at 100 uM after 24 hrs by immunostaining. The format is functional, cell-based.
Experiment [17] in a line: Decrease in IFN-gamma-induced MHC2 mRNA levels in Sprague-Dawley rat primary microglial cells at 100 uM after 24 hrs by RT-PCR. In kind it is functional, Microglia. Further details: scale not given: the % may be the effect or the level left.
The subject of experiment [18] is Rattus norvegicus. Description: Decrease in number of MOG-induced inflammatory lesions in spinal cord of dark agouti rat experimental allergic encephalomyelitis model at 45 mg/kg, ip administered twice a day at the first day of clinical signs and once a day for 14 days by hematoxylin and eosin staining. Further details: dose 45 mg/kg. The format is functional, organism-based.

For experiment [19], the species on record is Rattus norvegicus. In words: Suppression of IFN-gamma-induced PKCalpha/beta2 nuclear translocation in Sprague-Dawley rat primary microglial cells at 100 uM by Western blotting.
For experiment [20], the system named is Rattus norvegicus. Description: Decrease in accumulation of MHC 2+ cells in spinal cord of dark agouti rat experimental allergic encephalomyelitis model at 45 mg/kg, ip administered twice a day at the first day of clinical signs and once a day for 14 days by immunostaining. The format is functional. Further details: scale not given: the % may be the effect or the level left. Particulars: route intraperitoneal.

pIC50: −log10 of the molar value. Activity calls are given as the source filed them. The calls are words filed in the database; no cut-off is given here.

As a reminder, the pIC50 is −log10 of the IC50, conventionally taken in molar units.

For `Cn1c2ccccc2c2c3c(c4c5ccccc5n(CCC#N)c4c21)CNC3=O` [GO-6976], the outcome (in the experiment filed under Rattus norvegicus [1]; in [3]; with Microglia; with Macrophage [7]) was Active. For the same compound, the Activity in experiment [2] came out at 55%; in experiment [6] it was 80%. The values for the pIC50 in experiment [4] and in experiment [5] were 8.21 and 8.64, respectively.
For the compound `CN(C)c1ccc(O)c2c1C[C@H]1C[C@H]3[C@H](N(C)C)C(O)=C(C(N)=O)C(=O)[C@@]3(O)C(O)=C1C2=O` [MINOCYCLINE], the outcome (in [8]; in the experiment filed under Rattus norvegicus [10]; in experiment [12]; in the experiment with Rattus norvegicus [13]; in experiment [15]; with Macrophage [16]) was Active. In addition, the result with Rattus norvegicus [18] and in the experiment listed under Rattus norvegicus [19] was Active. Further, the Activity in [9] came out at 47%; in the experiment with Rattus norvegicus [11], 24%; in experiment [14], 55%; in experiment [17], 45%; in the experiment with Rattus norvegicus [20], 42%.

The values are drawn from ChEMBL document CHEMBL1156452, “Minocycline down-regulates MHC II expression in microglia and macrophages through inhibition of IRF-1 and protein kinase C (PKC)alpha/betaII” (J Biol Chem, 2007).
